Reference: US12054498B2, “Heteroaromatic macrocyclic ether chemotherapeutic agents” (Nuvalent, Inc., priority 2020, dated 2024)
pIC50, pKi: −log10 of the molar value.

Key:
ALK-wt = biological target: T1, ALK-wt (Homo sapiens, UniProt Q9UM73); assay: Biochemical kinase assay, ALK-wt kinase domain; conditions: apparent inhibitory constant, Morrison equation; ATP 2 mM in substrate solution; read-out: ALK-wt Ki^app
T1 construct: purchased Carna 08-518
Method in brief: (§1)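 Compound in DMSO added first, then substrate solution (ATP 2 mM; AQT0101 or AQT0104, 26 μM; pH 7.5 HEPES, 10 mM MgCl2), then kinase solution with enzyme at 0.5–3 nM depending on construct. Kinetic read every 2 min for 120 min at 30° C; Ki^app by Morrison regression.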

ALK L1196M/G1202R = biological target: T2, ALK L1196M/G1202R (Homo sapiens, UniProt Q9UM73, G1202R/L1196M); assay: Biochemical kinase assay, ALK L1196M/G1202R kinase domain; conditions: apparent inhibitory constant, Morrison equation; ATP 2 mM in substrate solution; read-out: ALK-L1196M-G1202R Ki^app
T2 construct: purchased SignalChem A19-12NG
T2 sequence (Q9UM73 1116-1392 L1196M/G1202R limits assumed): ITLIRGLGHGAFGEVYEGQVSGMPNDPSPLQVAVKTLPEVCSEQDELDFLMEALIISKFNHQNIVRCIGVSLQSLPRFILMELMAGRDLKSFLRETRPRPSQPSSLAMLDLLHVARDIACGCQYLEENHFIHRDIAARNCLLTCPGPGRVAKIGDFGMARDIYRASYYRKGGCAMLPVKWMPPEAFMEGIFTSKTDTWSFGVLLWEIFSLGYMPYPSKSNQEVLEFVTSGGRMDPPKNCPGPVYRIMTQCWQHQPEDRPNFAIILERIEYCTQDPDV
Method in brief: as §1

ROS1-wt = biological target: T3, ROS1-wt (Homo sapiens, UniProt P08922); assay: Biochemical kinase assay, ROS1-wt kinase domain; conditions: apparent inhibitory constant, Morrison equation; ATP 2 mM in substrate solution; read-out: ROS1-wt Ki^app
T3 construct: purchased Carna 08-163
T3 sequence (P08922 1945-2222 limits assumed): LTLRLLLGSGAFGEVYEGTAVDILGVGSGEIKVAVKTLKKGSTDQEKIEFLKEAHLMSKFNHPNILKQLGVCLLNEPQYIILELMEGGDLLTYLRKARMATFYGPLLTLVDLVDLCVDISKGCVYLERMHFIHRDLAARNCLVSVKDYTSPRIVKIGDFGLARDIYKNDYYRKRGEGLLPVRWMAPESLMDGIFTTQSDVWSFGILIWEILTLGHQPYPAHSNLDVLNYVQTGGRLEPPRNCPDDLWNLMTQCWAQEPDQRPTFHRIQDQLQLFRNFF
Method in brief: (§2)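 Kinetic read: 485 nm, 2-min intervals, 120 min, 30 °C. Substrate mix — ATP 2 mM, AQT0101 26 μM, HEPES 50 mM pH 7.5, MgCl2 10 mM. Output: Ki^app, Morrison equation.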

ROS1-G2032R = biological target: T4, ROS1-G2032R (Homo sapiens, UniProt P08922, G2032R); assay: Biochemical kinase assay, ROS1-G2032R kinase domain; conditions: apparent inhibitory constant, Morrison equation; ATP 2 mM in substrate solution; read-out: ROS1-G2032R Ki^app
T4 construct: purchased SignalChem R14-12BG
T4 sequence (P08922 1945-2222 G2032R limits assumed): as the sequence (P08922 1945-2222 limits assumed) above, with G88R counted along it
Method in brief: as §2

TRKA-wt = biological target: T5, TRKA-wt (Homo sapiens, UniProt P04629); assay: Biochemical kinase assay, TRKA-wt kinase domain; conditions: apparent inhibitory constant, Morrison equation; ATP 2 mM in substrate solution; read-out: TRKA-wt Ki^app
T5 construct: or TRKA-wt (1 nM, BPS Bio, 40280) kinase domains in buffer; purchased BPS Bio 40280
T5 sequence (P04629 510-781 limits assumed): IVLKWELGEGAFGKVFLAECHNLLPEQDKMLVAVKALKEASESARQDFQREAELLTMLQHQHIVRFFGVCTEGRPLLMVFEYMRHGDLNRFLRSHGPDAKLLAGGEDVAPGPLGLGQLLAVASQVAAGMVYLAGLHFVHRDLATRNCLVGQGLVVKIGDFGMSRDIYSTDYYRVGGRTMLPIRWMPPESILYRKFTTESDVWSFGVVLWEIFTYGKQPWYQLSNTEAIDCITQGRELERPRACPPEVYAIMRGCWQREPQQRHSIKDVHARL
Method in brief: as §1

[1] = biological target: T6, Ba/F3 cells CD74-ROS1 wild-type (wt) (Homo sapiens, UniProt P08922); assay: Ba/F3 cell proliferation assay, CD74-ROS1 wild-type; type: cell-based; conditions: 72 hours, CellTiter-Glo
T6 construct: fusion of the C-terminus of ROS1 with the N-terminus of various partner proteins; host or cells: Ba/F3 (RIKEN), retroviral pMSCV-puro; the other entry of the earlier key: CD74 (P04233, HLA class II histocompatibility antigen gamma chain)
T6 sequence (P08922 1883-2347 limits assumed): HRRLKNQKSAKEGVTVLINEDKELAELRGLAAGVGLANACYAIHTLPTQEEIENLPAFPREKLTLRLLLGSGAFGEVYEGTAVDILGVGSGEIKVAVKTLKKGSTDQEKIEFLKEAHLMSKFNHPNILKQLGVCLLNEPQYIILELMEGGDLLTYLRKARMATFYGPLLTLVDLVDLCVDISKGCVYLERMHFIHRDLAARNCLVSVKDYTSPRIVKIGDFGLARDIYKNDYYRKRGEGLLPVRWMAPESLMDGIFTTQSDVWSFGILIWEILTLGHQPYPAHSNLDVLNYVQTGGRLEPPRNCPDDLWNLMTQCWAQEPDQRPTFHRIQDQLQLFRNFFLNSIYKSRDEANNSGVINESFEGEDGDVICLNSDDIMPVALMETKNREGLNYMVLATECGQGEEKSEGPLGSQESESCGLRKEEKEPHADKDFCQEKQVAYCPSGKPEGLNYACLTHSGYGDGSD
Method in brief: (§3)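 Cells were seeded 1 day, then exposed to a 3-fold compound dilution series for 72 hours. Viability was read by CellTiter-Glo luminescence; IC50 came from four-parameter logistic fitting of percent inhibition.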

[2] = biological target: T7, Ba/F3 cells CD74-ROS1 G2032R (Homo sapiens, UniProt P08922, G2032R); assay: Ba/F3 cell proliferation assay, CD74-ROS1 G2032R; type: cell-based; conditions: 72 hours, CellTiter-Glo
T7 construct: fusion of the C-terminus of ROS1 with the N-terminus of various partner proteins; host or cells: Ba/F3 (RIKEN), retroviral pMSCV-puro; the other entry of the earlier key: CD74 (P04233, HLA class II histocompatibility antigen gamma chain)
T7 sequence (P08922 1883-2347 G2032R limits assumed): as the sequence (P08922 1883-2347 limits assumed) above, with G150R counted along it
Method in brief: as §3

[3] = biological target: T8, Ba/F3 cells EML4-ALK wt (variant 1) (Homo sapiens, UniProt Q9UM73); assay: Ba/F3 cell proliferation assay, EML4-ALK wt (variant 1); type: cell-based; conditions: 72 hours, CellTiter-Glo
T8 construct: echinoderm microtubule-associated protein-like 4 (EML4) gene and the ALK tyrosine kinase domain; host or cells: Ba/F3 (RIKEN), retroviral pMSCV-puro; the other entry of the earlier key: EML4 (Q9HC35, Echinoderm microtubule-associated protein-like 4)
T8 sequence (Q9UM73 with tags, fused parts or gaps): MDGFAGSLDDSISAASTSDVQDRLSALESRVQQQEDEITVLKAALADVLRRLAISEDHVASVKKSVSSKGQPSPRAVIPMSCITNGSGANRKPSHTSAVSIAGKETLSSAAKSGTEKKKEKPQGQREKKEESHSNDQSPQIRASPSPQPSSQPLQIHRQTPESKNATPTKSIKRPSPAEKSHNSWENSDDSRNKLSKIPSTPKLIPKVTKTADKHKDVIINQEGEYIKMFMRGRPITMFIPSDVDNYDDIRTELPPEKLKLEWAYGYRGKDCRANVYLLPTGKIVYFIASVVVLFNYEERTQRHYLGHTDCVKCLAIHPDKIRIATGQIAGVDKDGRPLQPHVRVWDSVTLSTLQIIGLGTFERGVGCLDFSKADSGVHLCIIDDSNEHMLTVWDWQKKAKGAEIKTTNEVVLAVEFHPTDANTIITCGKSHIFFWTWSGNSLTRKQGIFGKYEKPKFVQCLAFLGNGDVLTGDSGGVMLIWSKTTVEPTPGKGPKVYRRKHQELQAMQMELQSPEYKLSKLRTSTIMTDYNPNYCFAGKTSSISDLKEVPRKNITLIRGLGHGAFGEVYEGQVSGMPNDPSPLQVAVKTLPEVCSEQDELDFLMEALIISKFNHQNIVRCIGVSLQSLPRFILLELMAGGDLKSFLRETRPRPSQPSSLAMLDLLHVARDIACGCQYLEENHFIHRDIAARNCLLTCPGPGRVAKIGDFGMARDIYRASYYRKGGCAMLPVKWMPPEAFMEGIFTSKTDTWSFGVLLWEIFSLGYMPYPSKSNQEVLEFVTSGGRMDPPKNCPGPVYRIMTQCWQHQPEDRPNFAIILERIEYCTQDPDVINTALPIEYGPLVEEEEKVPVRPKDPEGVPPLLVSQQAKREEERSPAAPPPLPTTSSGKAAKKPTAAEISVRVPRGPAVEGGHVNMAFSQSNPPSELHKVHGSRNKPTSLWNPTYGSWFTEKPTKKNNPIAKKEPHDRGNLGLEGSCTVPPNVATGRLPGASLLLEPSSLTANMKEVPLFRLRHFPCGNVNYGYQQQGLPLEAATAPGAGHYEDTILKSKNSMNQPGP
Method in brief: (§4)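 Stable fusion-expressing Ba/F3 clones, 1,000 cells/well. Compounds for 72 h, CellTiter-Glo readout; IC50 by 4-parameter logistic regression.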

[4] = biological target: T9, Ba/F3 cells EML4-ALK L1196M/G1202R (variant 1) (Homo sapiens, UniProt Q9UM73, G1202R/L1196M); assay: Ba/F3 cell proliferation assay, EML4-ALK L1196M/G1202R (variant 1); type: cell-based; conditions: 72 hours, CellTiter-Glo
T9 construct: echinoderm microtubule-associated protein-like 4 (EML4) gene and the ALK tyrosine kinase domain; host or cells: Ba/F3 (RIKEN), retroviral pMSCV-puro; the other entry of the earlier key: EML4 (Q9HC35, Echinoderm microtubule-associated protein-like 4)
T9 sequence (Q9UM73 with tags, fused parts or gaps L1196M/G1202R): as the sequence (Q9UM73 with tags, fused parts or gaps) above, with L635M, G641R counted along it
Method in brief: as §4

Ba/F3 cells TPM3-TRKA = biological target: T10, Ba/F3 cells TPM3-TRKA (Homo sapiens, UniProt P04629); assay: Ba/F3 cell proliferation assay, TPM3-TRKA; type: cell-based; conditions: 72 hours, CellTiter-Glo, read-out: TPM3-NTRK1-wt IC50
T10 construct: host or cells: Ba/F3 (RIKEN), retroviral pMSCV-puro; the other entry of the earlier key: TPM3 (P06753, Tropomyosin alpha-3 chain)
T10 sequence (P04629 510-796 limits assumed): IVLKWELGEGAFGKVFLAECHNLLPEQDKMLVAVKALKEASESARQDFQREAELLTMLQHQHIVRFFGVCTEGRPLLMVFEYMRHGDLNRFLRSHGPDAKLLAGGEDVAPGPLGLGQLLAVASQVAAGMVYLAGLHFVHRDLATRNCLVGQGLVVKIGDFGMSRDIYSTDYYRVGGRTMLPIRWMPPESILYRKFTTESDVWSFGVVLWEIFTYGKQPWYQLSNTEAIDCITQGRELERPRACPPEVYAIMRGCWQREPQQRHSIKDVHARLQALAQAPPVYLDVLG
Method in brief: as §4

[5] = test system: TPM3-NTRK1-wt IC50 / primary target IC50 (e.g. CD74-ROS1-wt); assay: TRKA selectivity in Ba/F3 cells (TRKA potency divided by primary target potency); type: cell-based; conditions: for TPM3-NTRK1-wt/CD74-ROS1-G2032R selectivity ratio: TRKA potency / CD74-ROS1-G2032R potency; for TPM3-NTRK1-wt/CD74-ROS1-wt selectivity ratio: TRKA potency / CD74-ROS1-wt potency; for TPM3-NTRK1-wt/EML4-ALK-L1196M-G1202R selectivity ratio: TRKA potency / EML4-ALK-L1196M-G1202R potency; for TPM3-NTRK1-wt/EML4-ALK-wt selectivity ratio: TRKA potency / EML4-ALK-wt potency
Method: TRKA selectivity was calculated by dividing a compound's TRKA potency by its primary target potency (e.g. TPM3-NTRK1-wt IC50/CD74-ROS1-wt IC50). Compound selectivity can be interpreted by binning ratio values: bin A for very high selectivity, ratio >30-fold; bin B for high selectivity, ratio >10-fold; bin C for moderate selectivity, ratio ≥1; and bin D for low selectivity, ratio <1. […] (nd=not determined).

T1 sequence (Q9UM73 1116-1392 limits assumed): as the sequence (Q9UM73 1116-1392 L1196M/G1202R limits assumed) above, with M81L, R87G counted along it

Row | pKi (ALK-wt) | pKi (ALK L1196M/G1202R) | pKi (ROS1-wt) | pKi (ROS1-G2032R) | pKi (TRKA-wt) | pIC50 [1] | pIC50 [2] | pIC50 [3] | pIC50 [4] | pIC50 (Ba/F3 cells TPM3-TRKA) | SMILES | TPM3-NTRK1-wt/CD74-ROS1-G2032R selectivity ratio [5] | TPM3-NTRK1-wt/CD74-ROS1-wt selectivity ratio [5] | TPM3-NTRK1-wt/EML4-ALK-L1196M-G1202R selectivity ratio [5] | TPM3-NTRK1-wt/EML4-ALK-wt selectivity ratio [5]
1 | > 7.30 | 6.30 to 7.30 | > 7.30 | 6.30 to 7.30 | < 6.30 | 7.30 to 10.00 | 6.30 to 7.30 | 7.30 to 10.00 | < 6.30 | < 6.30 | C[C@H]1Oc2cc(cnc2N)-c2c(C#N)cnn2Cc2ncsc2-c2ccc(F)cc21 [Example 49, (19R)-22-amino-16-fluoro-19-methyl-20oxa-11-thia-5,6,9,23-tetraazapentacyclo[19.3.1.0^2,^6.0^8,^12.0^13,^18]pentacosa-1(24),2,4,8(12),9,13,15,17,21(25),22-decaene-3-carbonitrile] | B (bin B for high selectivity, ratio >10-fold) | A (bin A for very high selectivity, ratio >30-fold) | C (bin C for moderate selectivity, ratio ≥1) | A (bin A for very high selectivity, ratio >30-fold)
2 | > 7.30 | 6.30 to 7.30 | > 7.30 | 6.30 to 7.30 | < 6.30 | 7.30 to 10.00 | 7.30 to 10.00 | 7.30 to 10.00 | < 6.30 | 6.30 to 7.30 | CCc1snc2c1-c1cnc(N)c(c1)O[C@H](C)c1cc(F)ccc1-c1nn(C)nc1C2 [Example 87, (19R)-3-ethyl-16-fluoro-10,19-dimethyl-20-oxa-4-thia-5,9,10,11,23-pentaazapentacyclo[19.3.1.0^2,^6.0^8,^12.0^13,^18]pentacosa-1(24),2,5,8,11,13,15,17,21(25),22-decaen-22-amine] | B (bin B for high selectivity, ratio >10-fold) | A (bin A for very high selectivity, ratio >30-fold) | D (bin D for low selectivity, ratio <1) | A (bin A for very high selectivity, ratio >30-fold)

Further lines, the compound ahead of its results:

Row | SMILES | pKi (ALK-wt) | pKi (ALK L1196M/G1202R) | pKi (ROS1-wt) | pKi (ROS1-G2032R) | pKi (TRKA-wt) | pIC50 [1] | pIC50 [2] | pIC50 [3] | pIC50 [4] | pIC50 (Ba/F3 cells TPM3-TRKA) | TPM3-NTRK1-wt/CD74-ROS1-G2032R selectivity ratio [5] | TPM3-NTRK1-wt/CD74-ROS1-wt selectivity ratio [5] | TPM3-NTRK1-wt/EML4-ALK-L1196M-G1202R selectivity ratio [5] | TPM3-NTRK1-wt/EML4-ALK-wt selectivity ratio [5]
3 | C[C@H]1Oc2cc(cnc2N)-c2c(cnn2C2CC2)Cc2nn(C)nc2-c2ccc(F)cc21 [Example 14, (19R)-3-cyclopropyl-16-fluoro-10,19-dimethyl-20-oxa-3,4,9,10,11,23-hexaazapentacyclo[19.3.1.0^2,^6.0^8,^12.0^13,^18]pentacosa-1(24),2(6),4,8,11,13,15,17,21(25),22-decaen-22-amine] | > 7.30 | > 7.30 | > 7.30 | > 7.30 | 6.30 to 7.30 | 7.30 to 10.00 | 7.30 to 10.00 | 7.30 to 10.00 | 6.30 to 7.30 | 6.30 to 7.30 | A (bin A for very high selectivity, ratio >30-fold) | A (bin A for very high selectivity, ratio >30-fold) | C (bin C for moderate selectivity, ratio ≥1) | A (bin A for very high selectivity, ratio >30-fold)
4 | CCc1noc2c1-c1cnc(N)c(c1)O[C@H](C)c1cc(F)ccc1-c1cn(C)nc1C2 [Example 23, (19R)-3ethyl-16-fluoro-10,19-dimethyl-5,20-dioxa-4,9,10,23-tetraazapentacyclo[19.3.1.0^2,^6.0^8,^12.0^13,^18]pentacosa-1(24),2(6),3,8,11,13,15,17,21(25),22-decaen-22-amine] | > 7.30 | > 7.30 | > 7.30 | > 7.30 | 6.30 to 7.30 | 7.30 to 10.00 | 7.30 to 10.00 | 7.30 to 10.00 | 6.30 to 7.30 | 6.30 to 7.30 | A (bin A for very high selectivity, ratio >30-fold) | A (bin A for very high selectivity, ratio >30-fold) | C (bin C for moderate selectivity, ratio ≥1) | B (bin B for high selectivity, ratio >10-fold)
5 | C[C@H]1Oc2cc(cnc2N)-c2c(C3CCC3)nnn2Cc2nn(C)nc2-c2ccc(F)cc21 [Example 30, (19R)-3-cyclobutyl-16-fluoro-10,19-dimethyl-20-oxa-4,5,6,9,10,11,23-heptaazapentacyclo[19.3.1.0^2,^6.0^8,^12.0^13,^18]pentacosa-1(24),2,4,8,11,13,15,17,21(25),22-decaen-22-amine] | > 7.30 | > 7.30 | > 7.30 | > 7.30 | < 6.30 | 7.30 to 10.00 | 7.30 to 10.00 | 7.30 to 10.00 | 6.30 to 7.30 | < 6.30 | A (bin A for very high selectivity, ratio >30-fold) | A (bin A for very high selectivity, ratio >30-fold) | C (bin C for moderate selectivity, ratio ≥1) | A (bin A for very high selectivity, ratio >30-fold)
6 | C[C@H]1Oc2cc(cnc2N)-c2c(C3CCC3)noc2Cc2nn(C)nc2-c2ccc(F)cc21 [Example 26, (19R)-3-cyclobutyl-16-fluoro-10,19-dimethyl-5,20-dioxa-4,9,10,11,23-pentaazapentacyclo[19.3.1.0^2,^6.0^8,^12.0^13,^18]pentacosa-1(24),2(6),3,8,11,13,15,1 7,21(25),22-decaen-22-amine] | > 7.30 | > 7.30 | > 7.30 | > 7.30 | < 6.30 | 7.30 to 10.00 | 7.30 to 10.00 | 7.30 to 10.00 | 7.30 to 10.00 | 6.30 to 7.30 | A (bin A for very high selectivity, ratio >30-fold) | A (bin A for very high selectivity, ratio >30-fold) | C (bin C for moderate selectivity, ratio ≥1) | A (bin A for very high selectivity, ratio >30-fold)
7 | C[C@H]1Oc2cc(cnc2N)-c2c(C#N)cnn2Cc2nccnc2-c2ccc(F)cc21 [Example 47] | > 7.30 | 6.30 to 7.30 | > 7.30 | < 6.30 | < 6.30 | 7.30 to 10.00 | 6.30 to 7.30 | 7.30 to 10.00 | < 6.30 | < 6.30 | B (bin B for high selectivity, ratio >10-fold) | A (bin A for very high selectivity, ratio >30-fold) | C (bin C for moderate selectivity, ratio ≥1) | A (bin A for very high selectivity, ratio >30-fold)
